Common to all, as to settings: Compound concentration 1000.0 nM
Experiment [1] addresses Leukocyte tyrosine kinase receptor (Homo sapiens) (UniProt P29376).
Experiment [2] concerns the target SRSF protein kinase 2 (Homo sapiens) (UniProt P78362).
Experiment [3] concerns the target Receptor tyrosine-protein kinase erbB-3 (Homo sapiens) (UniProt P21860).
Experiment [4] addresses Wee1-like protein kinase 2 (Homo sapiens) (UniProt P0C1S8).
Experiment [5] addresses T1, Cytoplasmic tyrosine-protein kinase BMX (Homo sapiens) (UniProt P51813).
T1 sequence (whole entry): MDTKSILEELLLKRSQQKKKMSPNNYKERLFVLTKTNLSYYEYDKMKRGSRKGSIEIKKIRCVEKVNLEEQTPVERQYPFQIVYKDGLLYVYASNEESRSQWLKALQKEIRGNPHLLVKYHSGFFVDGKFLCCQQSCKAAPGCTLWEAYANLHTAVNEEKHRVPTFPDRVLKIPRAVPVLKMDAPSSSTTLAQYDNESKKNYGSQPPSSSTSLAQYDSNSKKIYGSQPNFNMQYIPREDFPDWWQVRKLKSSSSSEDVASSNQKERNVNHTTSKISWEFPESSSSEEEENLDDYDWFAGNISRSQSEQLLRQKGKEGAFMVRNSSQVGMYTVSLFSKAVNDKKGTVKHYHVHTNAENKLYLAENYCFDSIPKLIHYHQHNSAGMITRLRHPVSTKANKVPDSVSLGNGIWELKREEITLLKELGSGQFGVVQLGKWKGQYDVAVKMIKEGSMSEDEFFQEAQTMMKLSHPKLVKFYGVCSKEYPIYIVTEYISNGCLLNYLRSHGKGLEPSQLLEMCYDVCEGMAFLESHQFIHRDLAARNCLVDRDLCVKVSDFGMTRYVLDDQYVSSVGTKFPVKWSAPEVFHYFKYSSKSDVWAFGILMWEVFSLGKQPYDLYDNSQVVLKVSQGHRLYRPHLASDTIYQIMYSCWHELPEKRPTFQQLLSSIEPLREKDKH

Experiment [6] addresses T2, MAP/microtubule affinity-regulating kinase 4 (Homo sapiens) (UniProt Q96L34).
T2 sequence (whole entry): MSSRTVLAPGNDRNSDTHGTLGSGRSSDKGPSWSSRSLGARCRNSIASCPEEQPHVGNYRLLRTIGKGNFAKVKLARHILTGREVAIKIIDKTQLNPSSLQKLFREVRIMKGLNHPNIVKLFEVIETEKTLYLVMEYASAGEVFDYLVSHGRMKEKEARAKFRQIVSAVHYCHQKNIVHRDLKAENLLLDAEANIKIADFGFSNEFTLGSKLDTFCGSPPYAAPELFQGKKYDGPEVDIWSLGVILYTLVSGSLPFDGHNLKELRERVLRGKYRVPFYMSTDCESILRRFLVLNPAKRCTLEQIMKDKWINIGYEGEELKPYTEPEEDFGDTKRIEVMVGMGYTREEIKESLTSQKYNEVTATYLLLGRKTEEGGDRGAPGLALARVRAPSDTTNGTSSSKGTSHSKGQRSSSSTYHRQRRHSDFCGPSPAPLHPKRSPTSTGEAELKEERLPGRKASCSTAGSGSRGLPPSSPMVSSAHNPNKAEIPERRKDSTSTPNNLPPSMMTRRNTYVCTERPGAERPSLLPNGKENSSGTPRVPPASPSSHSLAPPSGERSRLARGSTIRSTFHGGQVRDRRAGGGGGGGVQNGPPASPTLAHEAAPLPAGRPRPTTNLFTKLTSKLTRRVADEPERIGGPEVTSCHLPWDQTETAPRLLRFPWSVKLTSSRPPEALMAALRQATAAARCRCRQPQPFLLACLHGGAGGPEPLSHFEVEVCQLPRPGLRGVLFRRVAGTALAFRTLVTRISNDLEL

Experiment [7] has as its target Angiopoietin-1 receptor (Homo sapiens) (UniProt Q02763).
Experiment [8] deals with Calcium/calmodulin-dependent protein kinase type II subunit delta (Homo sapiens) (UniProt Q13557).
Experiment [9] has as its target Mitogen-activated protein kinase 8 (Homo sapiens) (UniProt P45983).
Experiment [10] addresses Serine/threonine-protein kinase SBK1 (Homo sapiens) (UniProt Q52WX2).
Experiment [11] addresses 5'-AMP-activated protein kinase catalytic subunit alpha-1 (Homo sapiens, UniProt Q13131).
The target of experiment [12] is Dual specificity protein kinase CLK2 (Homo sapiens) (UniProt P49760).
The target in experiment [13] is Tyrosine-protein kinase JAK1 (Homo sapiens) (UniProt P23458).
Experiment [14] has as its target Citron Rho-interacting kinase (Homo sapiens) (UniProt O14578).
The target in experiment [15] is Proto-oncogene tyrosine-protein kinase ROS (Homo sapiens) (UniProt P08922).
Experiment [16] relates to Receptor-type tyrosine-protein kinase FLT3 (Homo sapiens), P36888 [D835Y].
Experiment [17] has as its target Myosin-IIIa (Homo sapiens) (UniProt Q8NEV4).
In experiment [18] the target is Proto-oncogene tyrosine-protein kinase receptor Ret (Homo sapiens) (UniProt P07949).

Sequence of SRSF protein kinase 2 (Homo sapiens) (P78362 whole entry, looked up): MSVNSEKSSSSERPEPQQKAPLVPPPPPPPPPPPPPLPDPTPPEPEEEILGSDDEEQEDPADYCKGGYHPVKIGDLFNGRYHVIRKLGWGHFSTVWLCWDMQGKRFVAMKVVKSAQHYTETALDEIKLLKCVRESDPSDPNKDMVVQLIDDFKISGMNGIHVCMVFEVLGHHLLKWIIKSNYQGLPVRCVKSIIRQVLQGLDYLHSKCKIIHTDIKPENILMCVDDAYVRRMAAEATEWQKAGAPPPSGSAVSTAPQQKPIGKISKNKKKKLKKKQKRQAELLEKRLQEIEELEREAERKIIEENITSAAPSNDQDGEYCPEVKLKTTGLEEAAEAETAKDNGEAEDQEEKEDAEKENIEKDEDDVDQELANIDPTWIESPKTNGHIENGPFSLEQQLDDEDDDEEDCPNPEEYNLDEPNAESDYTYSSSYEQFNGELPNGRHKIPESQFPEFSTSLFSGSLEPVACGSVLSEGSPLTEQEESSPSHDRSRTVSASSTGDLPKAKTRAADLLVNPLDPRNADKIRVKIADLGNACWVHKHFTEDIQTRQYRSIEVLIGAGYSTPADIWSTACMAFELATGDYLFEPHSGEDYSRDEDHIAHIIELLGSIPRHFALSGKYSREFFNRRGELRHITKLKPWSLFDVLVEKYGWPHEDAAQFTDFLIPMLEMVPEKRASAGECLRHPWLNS
Sequence of Serine/threonine-protein kinase SBK1 (Homo sapiens) (Q52WX2 whole entry): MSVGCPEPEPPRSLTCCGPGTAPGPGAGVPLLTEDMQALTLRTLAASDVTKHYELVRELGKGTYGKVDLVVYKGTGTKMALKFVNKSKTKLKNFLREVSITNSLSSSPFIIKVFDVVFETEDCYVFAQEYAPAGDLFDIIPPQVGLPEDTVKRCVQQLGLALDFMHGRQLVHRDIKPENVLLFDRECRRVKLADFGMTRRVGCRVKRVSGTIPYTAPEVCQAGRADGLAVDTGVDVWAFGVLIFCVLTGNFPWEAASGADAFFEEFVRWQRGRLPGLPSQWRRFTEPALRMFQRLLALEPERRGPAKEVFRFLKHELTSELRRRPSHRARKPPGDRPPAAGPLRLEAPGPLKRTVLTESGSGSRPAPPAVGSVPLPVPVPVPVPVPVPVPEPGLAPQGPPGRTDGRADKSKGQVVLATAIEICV
Sequence of Leukocyte tyrosine kinase receptor (Homo sapiens) (P29376 whole entry): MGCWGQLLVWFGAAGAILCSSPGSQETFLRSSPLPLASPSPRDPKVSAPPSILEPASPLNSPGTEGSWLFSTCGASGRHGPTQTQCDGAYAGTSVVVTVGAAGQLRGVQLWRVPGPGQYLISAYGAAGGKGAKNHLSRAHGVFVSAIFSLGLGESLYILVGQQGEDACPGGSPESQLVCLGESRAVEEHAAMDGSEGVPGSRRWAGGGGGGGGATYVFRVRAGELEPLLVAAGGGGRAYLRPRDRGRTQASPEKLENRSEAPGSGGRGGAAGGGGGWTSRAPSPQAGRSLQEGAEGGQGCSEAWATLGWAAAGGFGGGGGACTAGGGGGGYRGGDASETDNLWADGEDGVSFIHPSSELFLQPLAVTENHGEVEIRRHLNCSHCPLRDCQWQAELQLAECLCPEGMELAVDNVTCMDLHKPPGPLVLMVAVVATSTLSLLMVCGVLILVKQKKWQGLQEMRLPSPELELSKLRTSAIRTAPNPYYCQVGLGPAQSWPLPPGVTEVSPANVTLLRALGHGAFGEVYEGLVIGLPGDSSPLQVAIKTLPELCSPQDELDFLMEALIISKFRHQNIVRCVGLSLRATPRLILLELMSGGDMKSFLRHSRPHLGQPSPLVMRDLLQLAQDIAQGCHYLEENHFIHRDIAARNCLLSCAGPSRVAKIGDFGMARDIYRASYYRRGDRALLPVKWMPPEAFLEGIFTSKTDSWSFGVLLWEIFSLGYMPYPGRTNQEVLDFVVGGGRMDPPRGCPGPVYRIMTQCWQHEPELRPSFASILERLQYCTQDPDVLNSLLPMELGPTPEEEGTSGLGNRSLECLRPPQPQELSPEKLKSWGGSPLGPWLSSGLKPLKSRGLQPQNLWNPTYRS
Sequence of Citron Rho-interacting kinase (Homo sapiens) (O14578 whole entry): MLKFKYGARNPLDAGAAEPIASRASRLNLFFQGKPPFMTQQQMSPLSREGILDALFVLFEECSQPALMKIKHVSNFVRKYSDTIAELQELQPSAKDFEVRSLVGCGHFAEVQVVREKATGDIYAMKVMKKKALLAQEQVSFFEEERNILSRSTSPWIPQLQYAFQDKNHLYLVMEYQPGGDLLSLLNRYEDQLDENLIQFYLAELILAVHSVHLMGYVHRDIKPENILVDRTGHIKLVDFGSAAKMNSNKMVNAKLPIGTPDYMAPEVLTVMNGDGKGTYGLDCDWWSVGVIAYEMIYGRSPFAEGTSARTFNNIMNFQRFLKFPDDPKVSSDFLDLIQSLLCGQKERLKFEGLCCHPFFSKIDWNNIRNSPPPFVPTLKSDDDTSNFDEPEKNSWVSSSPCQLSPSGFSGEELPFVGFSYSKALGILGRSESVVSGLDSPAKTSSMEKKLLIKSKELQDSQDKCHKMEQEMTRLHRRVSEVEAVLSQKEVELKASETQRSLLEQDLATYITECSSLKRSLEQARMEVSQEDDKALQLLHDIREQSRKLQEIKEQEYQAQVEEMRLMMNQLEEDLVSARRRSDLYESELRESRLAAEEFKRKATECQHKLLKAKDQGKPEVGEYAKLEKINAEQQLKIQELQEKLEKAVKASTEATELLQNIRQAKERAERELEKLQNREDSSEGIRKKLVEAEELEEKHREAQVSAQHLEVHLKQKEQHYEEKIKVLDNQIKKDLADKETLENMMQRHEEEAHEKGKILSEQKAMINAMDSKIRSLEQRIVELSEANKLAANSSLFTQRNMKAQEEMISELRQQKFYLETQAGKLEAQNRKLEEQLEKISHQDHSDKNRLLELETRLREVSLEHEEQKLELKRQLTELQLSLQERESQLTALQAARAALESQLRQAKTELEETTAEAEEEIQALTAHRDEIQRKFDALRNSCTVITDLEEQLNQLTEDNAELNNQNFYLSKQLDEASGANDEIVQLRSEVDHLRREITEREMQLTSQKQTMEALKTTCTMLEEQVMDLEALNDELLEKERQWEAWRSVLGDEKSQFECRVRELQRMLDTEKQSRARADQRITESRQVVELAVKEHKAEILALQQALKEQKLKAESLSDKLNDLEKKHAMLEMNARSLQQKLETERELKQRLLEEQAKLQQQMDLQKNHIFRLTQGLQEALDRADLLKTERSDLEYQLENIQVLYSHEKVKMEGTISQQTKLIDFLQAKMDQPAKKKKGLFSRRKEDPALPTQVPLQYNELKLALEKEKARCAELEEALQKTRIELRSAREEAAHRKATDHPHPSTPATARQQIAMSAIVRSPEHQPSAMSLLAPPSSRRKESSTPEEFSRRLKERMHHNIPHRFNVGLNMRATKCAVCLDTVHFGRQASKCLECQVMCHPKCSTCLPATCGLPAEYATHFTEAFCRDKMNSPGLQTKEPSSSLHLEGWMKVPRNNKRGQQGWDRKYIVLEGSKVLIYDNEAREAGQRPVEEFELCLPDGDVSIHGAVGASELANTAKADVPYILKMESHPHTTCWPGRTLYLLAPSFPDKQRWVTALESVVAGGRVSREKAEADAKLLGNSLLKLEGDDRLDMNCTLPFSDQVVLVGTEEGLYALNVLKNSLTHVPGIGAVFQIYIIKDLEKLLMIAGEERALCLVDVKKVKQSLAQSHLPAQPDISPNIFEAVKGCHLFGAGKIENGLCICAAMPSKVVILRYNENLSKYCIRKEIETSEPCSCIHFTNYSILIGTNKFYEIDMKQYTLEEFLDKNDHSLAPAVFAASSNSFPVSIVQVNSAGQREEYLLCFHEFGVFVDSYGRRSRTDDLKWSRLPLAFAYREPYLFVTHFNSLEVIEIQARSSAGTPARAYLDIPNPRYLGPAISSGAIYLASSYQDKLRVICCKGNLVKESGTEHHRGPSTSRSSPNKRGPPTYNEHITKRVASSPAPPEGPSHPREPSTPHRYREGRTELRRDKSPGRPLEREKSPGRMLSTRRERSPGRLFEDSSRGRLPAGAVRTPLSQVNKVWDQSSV
Sequence of Angiopoietin-1 receptor (Homo sapiens) (Q02763 whole entry): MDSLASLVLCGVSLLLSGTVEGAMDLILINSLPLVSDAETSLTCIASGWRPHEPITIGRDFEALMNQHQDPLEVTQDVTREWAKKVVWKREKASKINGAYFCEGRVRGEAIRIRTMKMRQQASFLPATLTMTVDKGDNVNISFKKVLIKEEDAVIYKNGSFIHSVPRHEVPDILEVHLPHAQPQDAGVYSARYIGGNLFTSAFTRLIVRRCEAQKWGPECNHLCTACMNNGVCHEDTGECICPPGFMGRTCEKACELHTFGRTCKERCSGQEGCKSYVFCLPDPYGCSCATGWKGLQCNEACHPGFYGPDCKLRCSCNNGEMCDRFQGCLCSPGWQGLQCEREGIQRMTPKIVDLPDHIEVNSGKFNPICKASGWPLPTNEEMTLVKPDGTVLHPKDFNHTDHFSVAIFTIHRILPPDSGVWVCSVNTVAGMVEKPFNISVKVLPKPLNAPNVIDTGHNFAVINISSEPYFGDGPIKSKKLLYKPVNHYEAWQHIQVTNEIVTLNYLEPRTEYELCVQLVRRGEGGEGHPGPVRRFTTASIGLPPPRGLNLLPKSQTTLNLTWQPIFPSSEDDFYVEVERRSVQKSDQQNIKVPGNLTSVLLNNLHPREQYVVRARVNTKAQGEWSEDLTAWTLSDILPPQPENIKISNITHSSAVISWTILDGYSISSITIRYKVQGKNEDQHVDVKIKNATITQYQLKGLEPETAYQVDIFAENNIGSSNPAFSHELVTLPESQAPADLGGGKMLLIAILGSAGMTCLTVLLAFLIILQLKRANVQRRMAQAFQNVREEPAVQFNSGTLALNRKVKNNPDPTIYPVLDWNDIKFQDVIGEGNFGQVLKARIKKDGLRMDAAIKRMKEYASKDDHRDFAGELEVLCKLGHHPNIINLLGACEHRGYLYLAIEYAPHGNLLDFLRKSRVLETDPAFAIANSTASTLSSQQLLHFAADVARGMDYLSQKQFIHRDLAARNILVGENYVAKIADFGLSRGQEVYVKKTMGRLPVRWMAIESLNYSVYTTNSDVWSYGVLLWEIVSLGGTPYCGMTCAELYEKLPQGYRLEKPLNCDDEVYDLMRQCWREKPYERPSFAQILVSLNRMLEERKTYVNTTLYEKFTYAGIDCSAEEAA

Consider `CCc1ccccc1C(=O)Nc1n[nH]c2c(C)c(F)c(C3C(C#N)=C(C)N(C)C(C)=C3C#N)cc12` [BAY-3827], for which the residual activity is 94% in experiment [1]; 100% in experiment [2]; 91% in [3]; 82% in experiment [4]; 96% in experiment [5]; 51% in [6]. Moreover, the residual activity in experiment [7] was 91%; in [8], 78%; in experiment [9] it was 71%; in experiment [10], 100%; in [11], 7.5%; in experiment [12], 55%. The residual activity in experiment [13] is 97%; in [14], 90%; in experiment [15], 98%; in experiment [16], 2.5%; in [17], 68%; in experiment [18], 65%.

Turning to `CC1=C(C#N)C(c2ccc3c(c2)c(NC(=O)c2ccccc2C)nn3C)C(C#N)=C(C)N1` [BAY-974], the residual activity in [1] is 70%; in experiment [2], 88%; in experiment [3], 100%; in experiment [4] it was 100%; in experiment [5], 85%; in experiment [6], 94%. In addition, the residual activity in [7] was 98%; in [8] it was 100%; in experiment [9] it was 88%; in experiment [10] it was 98%; in experiment [11] it was 77%; in experiment [12], 75%. The residual activity was 100% in [13]; 55% in experiment [14]; 100% in experiment [15]; 82% in experiment [16]; 86% in [17]; 97% in experiment [18].

For the origin of these results see ChEMBL document CHEMBL4507319 (2021).
